The structures appear in SMILES notation. Counter-ions that a name gives are not always drawn.

One assay addresses T1, CCR-3 (Homo sapiens, UniProt P51677).
T1 sequence (P51677 1-355): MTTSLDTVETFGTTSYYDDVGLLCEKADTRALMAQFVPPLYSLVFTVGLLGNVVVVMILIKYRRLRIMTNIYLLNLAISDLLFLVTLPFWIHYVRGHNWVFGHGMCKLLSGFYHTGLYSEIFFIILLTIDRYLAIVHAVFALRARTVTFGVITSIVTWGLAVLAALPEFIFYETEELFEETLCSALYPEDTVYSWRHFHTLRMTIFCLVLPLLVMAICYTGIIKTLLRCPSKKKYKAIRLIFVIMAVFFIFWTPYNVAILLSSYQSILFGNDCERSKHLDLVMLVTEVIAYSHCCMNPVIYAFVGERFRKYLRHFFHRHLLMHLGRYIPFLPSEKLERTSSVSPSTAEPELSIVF
The assay can be described thus: CCR-3 competition binding SPA ([125I]eotaxin). The arrangement: expressed in transfected cells. The settings on record: inhibition of [125I]eotaxin binding to membranes of K562 cells stably expressing CCR-3; mean of at least two experiments; read-out: CCR-3 Binding Assay (pIC50) (converted). How it is done:
A CCR-3 competition binding SPA (scintillation proximity assay) was used to assess the affinity of novel compounds for CCR-3. Membranes prepared from K562 cells stably expressing CCR-3 (2.5 μg/well) were mixed with 0.25 mg/well wheat-germ agglutinin SPA beads (Amersham) and incubated in binding buffer (HEPES 50 mM, CaCl2 1 mM, MgCl2 5 mM, 0.5% BSA) at 4° C. for 1.5 hr. Following incubation, 20 pM of [^125I] eotaxin (Amersham) and increasing concentrations of compound (1 pM to 30 μM) were added and incubated in a 96 well plate for 2 hr at 22° C. then counted on a Microbeta plate counter. The total assay volume was 100 μl. Competition binding data were analysed by fitting the data with a four parameter logistic equation. Data are presented as the mean pIC50 values (negative logarithm of the concentration of compound which inhibits [^125I]eotaxin binding by 50%) from at least two experiments.
In the case of `N#Cc1ccc(NC(=O)NCC2CN(Cc3ccc(Cl)c(Cl)c3)CCO2)cc1` (stereo not shown) [Example 25, N-(4-Cyanophenyl)-N′-{[4-(3,4-dichlorobenzyl)morpholin-2-yl]methyl}urea], the IC50 is 1 µM.
Regarding `CNC(=O)c1ccc(CNC(=O)NC[C@H]2CN(Cc3ccc(Cl)c(Cl)c3)CCO2)cc1` [Example 149, 4-({[({[(2S)-4-(3,4-dichlorobenzyl)morpholin-2-yl]methyl}amino)carbonyl]amino}methyl)-N-methylbenzamide], the IC50 is 0.0158 µM.
Same read-out and setting: with `O=C(NCC1CN(Cc2ccc(Cl)c(Cl)c2)CCO1)Nc1cccc(C(F)(F)F)c1` (stereo not shown) [Example 22, N-{[4-(3,4-Dichlorobenzyl)morpholin-2-yl]methyl}-N′-[3-(trifluoromethyl)phenyl]urea] the figure was 0.955 µM; with `Cn1nnc(CNC(=O)NC[C@H]2CN(Cc3ccc(Cl)c(Cl)c3)CCO2)n1` [Example 136, N-{[(2S)-4-(3,4-dichlorobenzyl)morpholin-2-yl]methyl}-N′-[(2-methyl-2H-tetraazol-5-yl)methyl]urea], 0.0158 µM.
Still for that read-out and setting: as for `O=C(NCC1CN(Cc2ccc(Cl)c(Cl)c2)CCO1)Nc1ccc(OC(F)F)cc1` (stereo not shown) [Example 16, N-{[4-(3,4-Dichlorobenzyl)morpholin-2-yl]methyl}-N′-[4-(difluoromethoxy)phenyl]urea], the figure is 0.741 µM.
In the case of `N#Cc1cccc(NC(=O)NCC2CN(Cc3ccc(Cl)c(Cl)c3)CCO2)c1` (stereo not shown) [Example 5, N-(3-Cyanophenyl)-N′-{[4-(3,4-dichlorobenzyl)morpholin-2-yl]methyl}urea], the IC50 is 0.117 µM.
In the case of `CCOC(=O)C(c1ccccc1)N1CCOC(CNC(=O)Nc2ccc(Cl)cc2)C1` (stereo not shown) [Example 44, Ethyl {2-[({[(4-chlorophenyl)amino]carbonyl}amino)methyl]morpholin-4-yl}(phenyl)acetate], the IC50 was 10.5 µM.
The same measure, in the same setting: with `CC(=O)Nc1cccc(CNC(=O)NCC2CN(Cc3ccc(Cl)c(Cl)c3)CCO2)c1` (stereo not shown) [Example 52, N-[3-({[({[4-(3,4-Dichlorobenzyl)morpholin-2-yl]methyl}amino)carbonyl]amino}methyl)phenyl]acetamide Formate] the figure was 0.00178 µM.
As for `O=C(NCC1CN(Cc2cccc(I)c2)CCO1)Nc1ccc(Cl)cc1` (stereo not shown) [Example 21], the IC50 was 0.955 µM.
The same measure, in the same setting: as for `C=Cc1ccc(CN2CCOC(CNC(=O)Nc3ccc(Cl)cc3)C2)cc1` (stereo not shown) [Example 38, N-(4-Chlorophenyl)-N′-{[4-(4-vinylbenzyl)morpholin-2-yl]methyl}urea], the figure is 1.91 µM; as for `O=C(NCc1ccc(Cl)cc1)NCC1CN(Cc2ccc(Cl)c(Cl)c2)CCO1` (stereo not shown) [Example 47, N-(4-Chlorobenzyl)-N′-{[4-(3,4-dichlorobenzyl)morpholin-2-yl]methyl}urea], 0.0661 µM.
Still for that read-out and setting: with `O=C(NCC1CN(Cc2ccc(Cl)s2)CCO1)Nc1ccc(Cl)cc1` (stereo not shown) [Example 37, N-(4-Chlorophenyl)-N′-({4-[(5-chlorothien-2-yl)methyl]morpholin-2-yl}methyl)urea] the figure was 3.8 µM; with `O=C(NCC1CN(Cc2ccc3ccccc3c2)CCO1)Nc1ccc(Cl)cc1` (stereo not shown) [Example 23, N-(4-Chlorophenyl)-N′-{[4-(2-naphthylmethyl)Morpholin-2-yl]methyl}urea], 0.832 µM; with `O=C(NCC1CN(Cc2ccc(Cl)c(Cl)c2)CCO1)Nc1ccc(SC(F)(F)F)cc1` (stereo not shown) [Example 34, N-{[4-(3,4-Dichlorobenzyl)morpholin-2-yl]methyl}-N′-{4-[(trifluoromethyl)thio]phenyl}urea], 2 µM.
On the same count and under the same terms, with `Cc1ccc(CNC(=O)NCC2CN(Cc3ccc(Cl)c(Cl)c3)CCO2)cc1` (stereo not shown) [Example 3, N-{[4-(3,4-Dichlorobenzyl)morpholin-2-yl]methyl}-N′-(4-methylbenzyl)urea] the figure was 0.0692 µM; with `O=C(NCC1CN(Cc2ccc(Cl)c(Cl)c2)CCO1)Nc1ccc(Cl)cc1` (stereo not shown) [Example 14, N-(4-Chlorophenyl)-N′-{[4-(3,4-dichlorobenzyl)morpholin-2-yl]methyl}urea], 0.661 µM.
Consider `NC(=O)c1ccc(CNC(=O)NC[C@H]2CN(Cc3ccc(Cl)c(Cl)c3)CCO2)cc1` [Example 54, 4-({[({[(2S)-4-(3,4-Dichlorobenzyl)morpholin-2-yl]methyl}amino)carbonyl]amino}methyl)benzamide], for which the IC50 was 0.011 µM.

The next assay deals with T1, CCR-3. The assay can be described thus: Eosinophil chemotaxis assay (eotaxin-induced). The following applies: functional pKi; eosinophils from human peripheral blood; agonist eotaxin; read-out: CCR-3 Eosinophil Chemotaxis Assay (fpKi) (converted). Format: cell-based. The arrangement: Eosinophils were purified from human peripheral blood; endogenous in cells; host or cells: human peripheral blood eosinophils. The method, then:
(b) Eosinophil Chemotaxis Assay.
Compounds were evaluated for their inhibitory effect on eosinophil chemotaxis. Eosinophils were purified from human peripheral blood by standard CD16 cell depletion using a Miltenyi cell separation column and a magnetic Super Macs magnet as previously described (Motegi & Kita, 1998; J. Immunology. 161:4340–6). Cells were re-suspended in RPMI 1640/10% FCS solution and incubated with calcein-AM (Molecular Probes) at 37° C. for 30 mins. Following incubation, the eosinophils were centrifuged at 400 g for 5 min and re-suspended in RPMI/FCS at 2.2 million/ml. Cells were then incubated in the presence of increasing concentration of compounds (1 pM to 30 μM) at 37° C. for 30 mins. For control responses cells were incubated with RPMI/FCS only. The agonist eotaxin (either a concentration response curve or for the functional inhibition curves an EC80 concentration) was added to the lower chamber of a 96 well chemotaxis plate (5 μm filter: Receptor Technologies). Eosinophils (50 μl of 2 million/ml cells) were added to the top chamber of the filter plate and incubated at 37° C. for 45 mins. Cells remaining on top of the chemotaxis filter were removed and the number of eosinophils which had migrated were quantified by reading the plate on a fluorescent plate reader. Inhibition curves for the effect of compounds on eosinophil chemotaxis were analysed by fitting the data with a four parameter logistic equation. Functional pKi values (fpKi) were generated using the equation below (Lazareno & Birdsall, 1995. Br. J. Pharmacol 109: 1110–9).
With `CNC(=O)c1ccc(CNC(=O)NC[C@H]2CN(Cc3ccc(Cl)c(Cl)c3)CCO2)cc1` [Example 149, 4-({[({[(2S)-4-(3,4-dichlorobenzyl)morpholin-2-yl]methyl}amino)carbonyl]amino}methyl)-N-methylbenzamide], the Ki was 0.0158 µM.
As for `COc1ccc(CNC(=O)NCC2CN(Cc3ccc(Cl)c(Cl)c3)CCO2)cc1` (stereo not shown) [Example 2, N-{[4-(3,4-Dichlorobenzyl)morpholin-2-yl]methyl}-N′-(4-methoxybenzyl)urea], the Ki was 0.049 µM.
Take `C#CCNC(=O)NC[C@H]1CN(Cc2ccc(Cl)c(Cl)c2)CCO1` [Example 57, N-{[(2S)-4-(3,4-Dichlorobenzyl)morpholin-2-yl]methyl}-N′-prop-2-ynylurea]: the Ki is 0.00977 µM.
The same measure, in the same setting: as for `O=C(NCc1cccc(Cl)c1)NCC1CN(Cc2ccc(Cl)c(Cl)c2)CCO1` (stereo not shown) [Example 48, N-(3-Chlorobenzyl)-N′-{[4-(3,4-dichlorobenzyl)morpholin-2-yl]methyl}urea], the figure is 0.0389 µM; as for `O=C(NCC1CN(Cc2ccc(Cl)c(Cl)c2)CCO1)Nc1cccc(Cl)c1` (stereo not shown) [Example 13, N-(3-Chlorophenyl)-N′-{[4-(3,4-dichlorobenzyl)morpholin-2-yl]methyl}urea], 0.407 µM; as for `Cn1nnc(CNC(=O)NC[C@H]2CN(Cc3ccc(Cl)c(Cl)c3)CCO2)n1` [Example 136, N-{[(2S)-4-(3,4-dichlorobenzyl)morpholin-2-yl]methyl}-N′-[(2-methyl-2H-tetraazol-5-yl)methyl]urea], 0.00501 µM.
Consider `Cc1cccc(CNC(=O)NCC2CN(Cc3ccc(Cl)c(Cl)c3)CCO2)c1` (stereo not shown) [Example 4, N-{[4-(3,4-Dichlorobenzyl)morpholin-2-yl]methyl}-N′-(3-methylbenzyl)urea], for which the Ki was 0.0447 µM.
For the compound `O=C(NCC1CN(Cc2cccc3ccccc23)CCO1)Nc1ccc(Cl)cc1` (stereo not shown) [Example 19, N-(4-Chlorophenyl)-N′-{[4-(1 naphthylmethyl)morpholin-2-yl]methyl}urea], the Ki is 1.1 µM.
The same measure, in the same setting: with `CSc1cccc(NC(=O)NCC2CN(Cc3ccc(Cl)c(Cl)c3)CCO2)c1` (stereo not shown) [Example 18, N-{[4-(3,4-Dichlorobenzyl)morpholin-2-yl]methyl}-N′-[3-(methylthio)phenyl]urea] the figure was 1.45 µM; with `O=C(NCC1CN(Cc2cccc(Cl)c2)CCO1)Nc1ccc(Cl)cc1` (stereo not shown) [Example 26, N-{[4-(3-Chlorobenzyl)morpholin-2-yl]methyl}-N′-(4-chlorophenyl)urea], 1.41 µM; with `O=C(NCCc1ccccc1)NCC1CN(Cc2ccc(Cl)c(Cl)c2)CCO1` (stereo not shown) [Example 8, N-{[4-(3,4-Dichlorobenzyl)morpholin-2-yl]methyl}-N′-(2-phenylethyl)urea], 0.115 µM.
Take `NC(=O)c1ccc(CNC(=O)NC[C@H]2CN(Cc3ccc(Cl)c(Cl)c3)CCO2)cc1` [Example 54, 4-({[({[(2S)-4-(3,4-Dichlorobenzyl)morpholin-2-yl]methyl}amino)carbonyl]amino}methyl)benzamide]: the Ki is 0.0158 µM.

Another assay concerns ovalbumin sensitised guinea pigs. The assay can be described thus: Guinea-pig ovalbumin model: eosinophil infiltration and hyper-reactivity. Format: in vivo. The settings on record: 0.2–20 mg/kg, oral route. The method, then:
(c) Guinea-pig Ovalbumin Model
Inhibition of Eosinophil Infiltration and Hyper-Reactivity in the Guinea Pig
In a method based on that described by Danahay et al., 1997, ovalbumin sensitised guinea pigs were dosed with mepyramine (30 mg kg^−1 ip) to protect against anaphylactic bronchospasm. Test compounds, dissolved in 10% DMSO and 90% PEG200, were given by the oral route, 30 minutes before ovalbumin challenge (10 minutes breathing of an aerosol generated from a 0.5% solution of ovalbumin). Hyper-reactivity of the airways to the thromboxane mimetic U46619, was measured 24 hours after ovalbumin challenge in unrestrained animals using a whole body plethysmograph (Buxco Ltd., USA). The guinea pigs were then sacrificed and the lungs lavaged. Total and differential leukocyte counts were then obtained for the bronchoalveolar lavage fluid and the percentage reduction in eosinophil accumulation determined (Sanjar et al., 1992). Data was presented as the inhibitory effect of the specified dose expressed as a percentage of the vehicle control response.
Regarding `O=C(NCC1CN(Cc2ccc(Cl)c(Cl)c2)CCO1)Nc1ccc(Cl)cc1` (stereo not shown) [Example 14, N-(4-Chlorophenyl)-N′-{[4-(3,4-dichlorobenzyl)morpholin-2-yl]methyl}urea], the “inhibition of lung eosinophilia” value is given as “showed inhibition”.

The assay is the same for the next values; noted with them: 0.2–20 mg/kg, oral route, hyper-reactivity to U46619.
For `O=C(NCC1CN(Cc2ccc(Cl)c(Cl)c2)CCO1)Nc1ccc(Cl)cc1` (stereo not shown) [Example 14, N-(4-Chlorophenyl)-N′-{[4-(3,4-dichlorobenzyl)morpholin-2-yl]methyl}urea], the “inhibition of bronchial hyperreactivity” value is recorded as “showed inhibition”.

These data come from patent US7157457B2, “Compounds useful in the treatment of inflammatory diseases” (Glaxo Group Limited, priority 2000, dated 2007).
